This note sets out measurements from patent publication US11471444B2, “Methods of inhibiting tumor metastasis” (Vanderbilt University, priority 2017, dated 2022).

Data set [1] relates to 4T1-RFP-luciferase cells. The data set can be described thus: Orthotopic 4T1 mouse model of metastasis (second experiment). Type of data set: in vivo, Balb/C mice. The settings on record: ifetroban 50 mg/kg daily or aspirin 12 mg/kg daily from tumor volume 50 mm^3; lungs harvested approx. 4 weeks later; FIG. 3. As for the experimental part: 1×10^5 4T1-RFP-luciferase cells were implanted into the left inguinal mammary fatpads of 6-week old, virgin WT Balb/C female mice as above. Mice were treated by orogastric gavage with ifetroban (50 mg/kg daily) or vehicle control when average tumor volume reached 50 mm^3 as above. Additionally a third group was treated with aspirin (12 mg/kg daily). Lungs were harvested approximately 4 weeks later. Lungs were assessed by whole mount hematoxylin staining to enumerate surface metastases (macro metastases) (FIG. 3).

Data set [2] concerns MiaPaca2 (pancreas) cancer cells. The data set can be described thus: Hematogenous metastasis of pancreatic cancer cells (tail vein injection). It counts as in vivo, nu/nu mice. The settings on record: 50 mg/kg by orogastric gavage, pre-treated 24 hours, daily for 21 days; FIG. 8. As for the experimental part:
(§1) MDA-MB-231 (breast), MiaPaca2 (pancreas) and A549 (lung) cancer cells were delivered by tail vein injection to nu/nu mice pre-treated 24 hours by orogastric gavage with ifetroban (50 mg/kg; N=10 per group) or vehicle (N=10). Mice continued daily treatment for an additional 21 days. On day 21, lungs were harvested and assessed for metastases. N=9, P value, Student's t-test.

In data set [3] the test system is MDA-MB-231 (breast) cancer cells. The data set can be described thus: Hematogenous metastasis of breast cancer cells (tail vein injection). It counts as in vivo, nu/nu mice. The settings on record: 50 mg/kg by orogastric gavage, pre-treated 24 hours, daily for 21 days; FIG. 8. As for the experimental part:
as §1

The next data set deals with MDA-MB-231 cells. Nature of the data set: Lung metastases after tail vein injection of MDA-MB-231 cells. The settings on record: 50 mg/kg daily by orogastric gavage from 48 h before cell injection, continued 3 weeks; FIG. 4. Type of data set: in vivo, mice. Here is the method: Mice were randomized into groups receiving treatment by orogastric gavage with ifetroban (50 mg/kg daily) or vehicle, using 10 mice in both the ifetroban and control groups and 4% sucrose in water for the vehicle. Mice were treated 48 h prior to hematogenous delivery of MDA-MB-231 cells (1×10^5 cells) by tail vein injection, and ifetroban treatment was continued for 3 weeks thereafter, at which point lungs were collected from each mouse, and lung metastatic lesions visible to the naked eye were counted (FIG. 4).

For data set [4], the system named is 4T1-RFP-luciferase cells. Nature of the data set: Orthotopic 4T1 mouse model of metastasis (first experiment). It counts as in vivo, Balb/C mice. Here is the method: 1×10^5 4T1-RFP-luciferase cells were implanted into the left inguinal mammary fatpads of 6-week old, virgin WT Balb/C female mice using the following protocol. Mammary tumor cells (4T1-RFP-luciferase cells) are collected by trypsinization, counted, and resuspended in 50 microliters of serum-free media+50 microliters of growth factor-reduced Matrigel, for a total volume of 100 microliters. The cells are loaded into a syringe with a 26-g needle. The cells are injected into the inguinal mammary gland, which lies directly under (and attached to) the skin. The entire injection procedure takes about 10 seconds per mouse. Mice were treated by orogastric gavage with ifetroban (50 mg/kg daily) or vehicle control when average tumor volume reached 200 mm^3, using 8 mice in the ifetroban treatment group, 4 mice in the control group, and 4% sucrose in water for the vehicle. Tumors, lungs and plasma were harvested approximately 3 weeks later. Lungs were assessed by whole mount hematoxylin staining to enumerate surface metastases (macro metastases) (FIG. 1). Lungs were sectioned and stained with hematoxylin and eosin to confirm that hematoxylin-stained nodules were metastatic lesions, and to enumerate microscopic metastases (FIG. 2).
(§2) 1×10^5 4T1-RFP-luciferase cells were implanted into the left inguinal mammary fat pads of 6-week old, virgin WT Balb/C female mice. Mice were treated by orogastric gavage with ifetroban (50 mg/kg daily; N=8) or vehicle control (N=4) when average tumor volume reached 200 mm^3. […] Mouse total body weight was not affected by Ifetroban treatment (50 mg/kg daily) for 3 weeks (FIG. 5C).

In the next data set the test system is 4T1 cells. The data set can be described thus: 4T1 cell culture growth and viability. It counts as cell-based. The settings on record: treated for 96 hours; FIG. 5A. The source says:
For cell culture experiments, vehicle is PBS.

Another data set has as its system A549 (lung) cancer cells. Nature of the data set: Hematogenous metastasis of lung cancer cells (tail vein injection). The settings on record: 50 mg/kg by orogastric gavage, pre-treated 24 hours, daily for 21 days; FIG. 8. It counts as in vivo, nu/nu mice. As for the experimental part: as §1
Data set [5] can be described thus: Total body weight of 4T1 tumor-bearing mice. The settings on record: 50 mg/kg daily for 3 weeks; FIG. 5C. Type of data set: in vivo, Balb/C mice. Here is the method:
as §2

In the case of `CC(=O)Oc1ccccc1C(=O)O` [aspirin], the “surface lung metastases (macro metastases)” value (“surface lung metastases” below) with 4T1-RFP-luciferase cells [1] is on record as “decrease”.

Regarding `CCCCCNC(=O)c1coc([C@H]2[C@@H](Cc3ccccc3CCC(=O)O)[C@@H]3CC[C@H]2O3)n1` [ifetroban], in data set [2], the “hematogenous metastasis to lungs, pancreatic cancer cells” value is reported as “decreased”. Further, the “hematogenous metastasis to lungs, breast cancer cells” value in data set [3] is “decreased”. Further, the “lung metastatic lesions visible to the naked eye” value in the data set with MDA-MB-231 cells is listed as “decrease”. Moreover, the microscopic lung metastases result with 4T1-RFP-luciferase cells [4] (50 mg/kg daily by orogastric gavage from tumor volume 200 mm^3, approx. 3 weeks, lung sections, hematoxylin and eosin, FIG. 2) is “decrease”. For the same compound, in the data set with 4T1-RFP-luciferase cells [4] (50 mg/kg daily by orogastric gavage from tumor volume 200 mm^3, lungs harvested approx. 3 weeks later, whole mount hematoxylin staining, FIG. 1), the “surface lung metastases” value is recorded as “decrease”. The primary tumor volume result in the data set on 4T1-RFP-luciferase cells [4] (50 mg/kg daily for 3 weeks, FIG. 5B) is on record as “did not affect”. In the data set on 4T1 cells, the “4T1 cell number (automated cell counting)” value is recorded as “no ifetroban-mediated changes” and the “number of apoptotic 4T1 cells (Annexin V staining)” value was “no ifetroban-mediated changes”. Also, the “surface lung metastases” value in the data set on 4T1-RFP-luciferase cells [1] was “decrease”. Further, in the data set on A549 (lung) cancer cells, the “hematogenous metastasis to lungs, lung cancer cells” value was “decreased”. In data set [5], the “total mouse body weight” value is on record as “not affected”.
